In PMC10818931, “In Vitro Evaluation of Drug–Drug Interaction Potential of Epetraborole, a Novel Bacterial Leucyl-tRNA Synthetase Inhibitor” (Pharmaceuticals, 2024):

Key:
Type in all cases: in vitro ADME
MATE2K = target: T1, MATE2K (Homo sapiens, UniProt Q86VL8); experiment: Transporter inhibition; details: read-out: as an Inhibitor, IC50
T1 construct: host or cells: MDCK

OAT3 = target: T2, OAT3 (Homo sapiens, UniProt Q8TCC7); experiment: Uptake transporter inhibition in transfected HEK 293 or MDCK cells; details: for Inhibition (in words): concentrations up to 1000 μM; for IC50: read-out: as an Inhibitor, IC50
T2 construct: host or cells: MDCK
T2 sequence (Q8TCC7 1-542): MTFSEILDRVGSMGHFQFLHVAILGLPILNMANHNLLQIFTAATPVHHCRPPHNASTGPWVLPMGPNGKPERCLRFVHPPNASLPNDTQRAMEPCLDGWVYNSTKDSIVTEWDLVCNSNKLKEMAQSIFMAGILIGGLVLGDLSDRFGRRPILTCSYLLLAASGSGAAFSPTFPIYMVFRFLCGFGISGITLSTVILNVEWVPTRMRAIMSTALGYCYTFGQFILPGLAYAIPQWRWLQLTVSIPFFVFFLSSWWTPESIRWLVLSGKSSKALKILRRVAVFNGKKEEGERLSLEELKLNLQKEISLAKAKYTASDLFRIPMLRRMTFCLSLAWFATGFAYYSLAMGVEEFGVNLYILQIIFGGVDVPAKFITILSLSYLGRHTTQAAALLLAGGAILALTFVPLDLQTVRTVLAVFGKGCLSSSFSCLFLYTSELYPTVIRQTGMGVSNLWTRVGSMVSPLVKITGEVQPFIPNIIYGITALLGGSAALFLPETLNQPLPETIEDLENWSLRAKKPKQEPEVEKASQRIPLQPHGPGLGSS
Procedure: (§1) Cell monolayers were preincubated (37 °C) for 15 to 30 min in a transport medium containing the target concentration of EBO or a specific inhibitor without substrate. Following the removal of preincubation solutions, appropriate working solutions containing EBO at the target concentration plus the probe substrate were added to the wells in triplicate. Separate sets of triplicate wells were designated for probe substrate only and probe substrate plus the specific inhibitors, to determine the maximal uptake rate and maximal inhibition of uptake, respectively. After incubation at 37 °C for each transporter, the working solution was removed from each well and the experiment was stopped by washing three times with cold (4 °C) DPBS. Depending on the substrate label, cells were either lysed for the analysis of total radioactivity (liquid scintillation counter) or LC-MS/MS methods. For measuring relative fluorescence (FLUOstar Galaxy, Cary, NC, USA), cells were not lysed.

OCT2 = target: T3, OCT2 (Homo sapiens, UniProt O15244); experiment: as above
T3 construct: host or cells: MDCK
T3 sequence (O15244 1-555): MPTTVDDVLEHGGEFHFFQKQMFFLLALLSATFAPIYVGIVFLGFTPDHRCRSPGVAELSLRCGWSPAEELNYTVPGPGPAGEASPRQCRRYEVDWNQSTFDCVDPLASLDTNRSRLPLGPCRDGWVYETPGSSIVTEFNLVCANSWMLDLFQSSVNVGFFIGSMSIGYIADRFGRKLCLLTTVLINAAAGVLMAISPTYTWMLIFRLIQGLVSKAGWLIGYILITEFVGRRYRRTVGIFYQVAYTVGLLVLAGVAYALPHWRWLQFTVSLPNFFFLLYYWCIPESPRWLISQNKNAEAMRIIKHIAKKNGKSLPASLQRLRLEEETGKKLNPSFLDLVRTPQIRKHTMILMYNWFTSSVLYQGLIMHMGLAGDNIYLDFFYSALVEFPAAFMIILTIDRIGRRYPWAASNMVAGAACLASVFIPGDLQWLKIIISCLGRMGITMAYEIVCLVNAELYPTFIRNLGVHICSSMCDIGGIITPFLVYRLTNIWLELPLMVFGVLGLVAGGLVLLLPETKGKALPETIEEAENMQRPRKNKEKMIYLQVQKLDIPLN
Procedure: as §1

OCT1 = target: T4, OCT1 (Homo sapiens, UniProt O15245); experiment: as above
T4 construct: expressed in transfected cells; host or cells: HEK 293 or MDCK
T4 sequence (O15245 whole entry): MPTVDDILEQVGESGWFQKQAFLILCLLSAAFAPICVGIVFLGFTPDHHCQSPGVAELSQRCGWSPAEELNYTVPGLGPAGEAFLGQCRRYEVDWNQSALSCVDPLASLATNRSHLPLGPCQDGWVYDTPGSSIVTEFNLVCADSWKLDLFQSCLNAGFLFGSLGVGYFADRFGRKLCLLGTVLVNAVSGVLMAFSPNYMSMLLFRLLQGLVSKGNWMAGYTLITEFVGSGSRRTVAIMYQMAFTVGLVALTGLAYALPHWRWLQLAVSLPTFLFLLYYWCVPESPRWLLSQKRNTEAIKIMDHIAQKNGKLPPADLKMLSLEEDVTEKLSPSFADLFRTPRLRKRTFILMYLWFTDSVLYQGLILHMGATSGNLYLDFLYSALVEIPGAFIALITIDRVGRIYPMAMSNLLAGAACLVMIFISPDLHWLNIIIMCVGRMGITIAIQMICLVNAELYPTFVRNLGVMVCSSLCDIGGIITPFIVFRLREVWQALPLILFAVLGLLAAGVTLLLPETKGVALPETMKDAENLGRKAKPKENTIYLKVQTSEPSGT
Procedure: as §1

P-gp = P-gp (Homo sapiens, UniProt P08183); experiment: Substrate potential for P-gp, bidirectional permeability in MDR1-MDCK; details: for Concentration in the receiver compartment: 5 µM, MDR1-MDCK and MDCK cells, A to B and B to A, Papp and efflux ratio could not be calculated; for as a Substrate: P-gp
Chain of P-gp (P08183 whole entry): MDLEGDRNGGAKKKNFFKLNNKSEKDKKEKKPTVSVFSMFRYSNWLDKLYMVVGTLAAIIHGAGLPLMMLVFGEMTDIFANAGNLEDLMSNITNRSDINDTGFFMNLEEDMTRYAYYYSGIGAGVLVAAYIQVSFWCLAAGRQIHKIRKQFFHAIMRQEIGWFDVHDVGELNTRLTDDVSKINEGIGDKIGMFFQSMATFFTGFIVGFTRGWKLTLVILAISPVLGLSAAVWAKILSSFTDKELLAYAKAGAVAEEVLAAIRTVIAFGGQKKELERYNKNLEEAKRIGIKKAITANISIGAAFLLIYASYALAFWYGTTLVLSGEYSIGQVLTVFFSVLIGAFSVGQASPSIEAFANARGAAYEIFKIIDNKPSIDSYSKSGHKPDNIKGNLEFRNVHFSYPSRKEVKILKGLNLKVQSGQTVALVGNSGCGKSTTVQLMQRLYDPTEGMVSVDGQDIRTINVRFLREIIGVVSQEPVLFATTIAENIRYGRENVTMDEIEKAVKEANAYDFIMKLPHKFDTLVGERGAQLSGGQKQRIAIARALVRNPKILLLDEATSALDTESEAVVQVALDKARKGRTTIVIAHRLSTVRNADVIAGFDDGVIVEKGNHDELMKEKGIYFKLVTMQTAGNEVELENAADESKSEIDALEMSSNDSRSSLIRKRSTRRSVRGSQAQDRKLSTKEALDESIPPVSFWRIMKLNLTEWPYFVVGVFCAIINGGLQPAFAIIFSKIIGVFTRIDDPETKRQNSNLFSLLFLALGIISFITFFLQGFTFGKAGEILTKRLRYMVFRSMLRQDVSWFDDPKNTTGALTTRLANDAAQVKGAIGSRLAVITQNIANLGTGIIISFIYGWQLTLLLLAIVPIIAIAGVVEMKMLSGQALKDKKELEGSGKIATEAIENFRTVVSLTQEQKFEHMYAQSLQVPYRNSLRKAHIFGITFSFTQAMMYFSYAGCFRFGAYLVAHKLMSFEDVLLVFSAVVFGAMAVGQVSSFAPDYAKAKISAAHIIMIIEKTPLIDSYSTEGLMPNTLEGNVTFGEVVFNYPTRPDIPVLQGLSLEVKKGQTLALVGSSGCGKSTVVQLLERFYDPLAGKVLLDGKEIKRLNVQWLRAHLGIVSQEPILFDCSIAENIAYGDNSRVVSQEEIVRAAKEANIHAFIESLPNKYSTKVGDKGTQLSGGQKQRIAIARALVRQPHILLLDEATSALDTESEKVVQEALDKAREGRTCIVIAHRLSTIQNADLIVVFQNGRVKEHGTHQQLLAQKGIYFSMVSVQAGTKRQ
Procedure: In vitro evaluation of the substrate potential of EBO (5 µM) and M3 (5 µM) for P-gp was conducted in single transporter-transfected and non-transfected Madin–Darby canine kidney (MDCK) cells monolayers according to Absorption Systems (Exton, PA, USA) standard operating procedures (SOP). The integrity of each cell monolayer was evaluated by lucifer yellow presence.

[1] = read-out: as an Inhibitor, IC50

T1 sequence (Q86VL8 1-566 isoform Q86VL8-3): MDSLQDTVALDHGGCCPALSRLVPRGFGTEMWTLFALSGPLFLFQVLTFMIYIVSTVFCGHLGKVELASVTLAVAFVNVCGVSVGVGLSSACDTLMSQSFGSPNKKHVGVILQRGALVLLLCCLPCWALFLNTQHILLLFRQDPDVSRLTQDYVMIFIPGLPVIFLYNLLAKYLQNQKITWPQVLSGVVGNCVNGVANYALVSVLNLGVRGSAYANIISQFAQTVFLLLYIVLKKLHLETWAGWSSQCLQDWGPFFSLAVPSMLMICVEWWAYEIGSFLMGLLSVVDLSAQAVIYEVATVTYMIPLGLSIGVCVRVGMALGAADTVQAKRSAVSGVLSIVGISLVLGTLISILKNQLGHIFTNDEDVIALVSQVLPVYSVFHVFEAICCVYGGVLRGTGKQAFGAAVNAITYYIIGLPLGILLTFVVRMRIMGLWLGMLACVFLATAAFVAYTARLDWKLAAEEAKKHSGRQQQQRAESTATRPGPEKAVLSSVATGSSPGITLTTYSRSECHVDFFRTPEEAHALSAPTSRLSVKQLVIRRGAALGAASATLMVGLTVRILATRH

`NC[C@H]1OB(O)c2c(OCCCO)cccc21` [EBO, Epetraborole] was tested, and the IC50 (MATE2K) was > 100 µM, the “Inhibition (in words)” value (OAT3) was “did not inhibit” and the IC50 (OAT3) was > 1000 µM. For the same molecule, the inhibition at 1000 µM (OCT2; human, probe metformin, metformin transport, at 1000 µM (maximum tested)) was 20%, the inhibition at 1000 µM (OCT1; human, HEK 293 or MDCK cells transfected with OCT1, probe metformin, metformin transport, at 1000 µM (maximum tested)) was 59% and the “Concentration in the receiver compartment” value (P-gp) was “below the lower limit of quantification”. For the same molecule, the “as a Substrate” value (P-gp) was “No”.
For `NC[C@H]1OB(O)c2c(OCCC(=O)O)cccc21` [M3], the IC50 (MATE2K) was > 250 µM, the “Inhibition (in words)” value (OAT3) was “did not inhibit” and the IC50 (OAT3) was > 1000 µM. For the same molecule, the IC50 (OCT2; [1]) was > 250 µM, the IC50 (OCT1; [1]) was > 250 µM and the “Concentration in the receiver compartment” value (P-gp) was “below the lower limit of quantification”. For the same molecule, the “as a Substrate” value (P-gp) was “No”.
